Experimental data: patent publication US4740233A, “Substituted 1,2,4-triazolo[1,5-a]-pyrimidine-2-sulfonamides and compositions and methods of controlling undesired vegetation and suppressing the nitrification of ammonium nitrogen in soil” (The Dow Chemical Company, priority 1986, dated 1988)

Columns and labels:
soybean = assay: Postemergent control of plant species; type: in vivo, Glycine max.; details: Glycine max, post-emergence, 336 h, read-out: percent postemergent control
Method in brief: (§1)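 Foliar spray, 2-4 leaf stage, greenhouse. Formulation: acetone solution (2x final conc.) mixed 1:1 with water + 0.1% surface active agent. ~2 wk hold, watered as needed. Readout = % growth reduction vs untreated same-species controls.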

[1] = tested on: nitrification of ammonium nitrogen; assay: Suppression of nitrification of ammonium nitrogen in soil; details: 27° C.
Method in brief: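 Soil (20 g) moistened to its 1/3 bar tension value, mixed with test chemical and incubated sealed for two weeks at 27° C. Nitrate extracted with ammonium sulfate solution and measured by nitrate-specific ion electrode; value given as % NH4-N remaining.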

annual morning glory = assay: Postemergent control of plant species; type: in vivo, Ipomoea spp.; details: Ipomoea, post-emergence, 336 h, read-out: percent postemergent control
Method in brief: as §1

cocklebur = assay: Postemergent control of plant species; type: in vivo, Xanthium spp.; details: Xanthium strumarium, post-emergence, 336 h, read-out: percent postemergent control
Method in brief: as §1

wild oats [2] = assay: Postemergent control of plant species; type: in vivo, Avena fatua; details: Avena fatua, post-emergence, 336 h, read-out: percent postemergent control
Method in brief: as §1

corn [3] = assay: Postemergent control of plant species; type: in vivo, Zea mays; details: Zea mays, post-emergence, 336 h, read-out: percent postemergent control
Method in brief: as §1

rape [4] = assay: Postemergent control of plant species; type: in vivo, Brassica napus; details: Brassica napus, post-emergence, 336 h, read-out: percent postemergent control
Method in brief: as §1

rice = assay: Preemergent control of plant species; type: in vivo, Oryza sativa; details: Oryza sativa, pre-emergence, 336 h; 0.25 lb/acre; read-out: percent preemergent control
Method in brief: (§2)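 Growth reduction relative to untreated plants of the same species, assessed two weeks after treatment, defines the control value. Compositions, mostly aqueous emulsions, were deposited uniformly on seeded greenhouse soil beds at the tabulated rates, with a water-treated bed as reference.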

johnson grass [5] = assay: Postemergent control of plant species; type: in vivo, Sorghum halepense; details: Sorghum halepense, post-emergence, 336 h, read-out: percent postemergent control
Method in brief: as §1

sorghum = assay: Postemergent control of plant species; type: in vivo, Sorghum vulgare; details: Sorghum, post-emergence, 336 h, read-out: percent postemergent control
Method in brief: as §1

johnson grass [6] = assay: Preemergent control of plant species; type: in vivo, Sorghum halepense; details: Sorghum halepense, pre-emergence, 336 h; 0.25 lb/acre; read-out: percent preemergent control
Method in brief: as §2

crabgrass [7] = assay: Postemergent control of plant species; type: in vivo, Digitaria spp.; details: Digitaria sanguinalis, post-emergence, 336 h, read-out: percent postemergent control
Method in brief: as §1

corn [8] = assay: Preemergent control of plant species; type: in vivo, Zea mays; details: Zea mays, pre-emergence, 336 h; 0.25 lb/acre; read-out: percent preemergent control
Method in brief: as §2

velvetleaf [9] = assay: Postemergent control of plant species; type: in vivo, Abutilon theophrasti; details: Abutilon theophrasti, post-emergence, 336 h, read-out: percent postemergent control
Method in brief: as §1

yellow nutsedge = assay: Preemergent control of plant species; type: in vivo, Cyperus esculentus; details: Cyperus, pre-emergence, 336 h; 0.25 lb/acre; read-out: percent preemergent control
Method in brief: as §2

velvetleaf [10] = assay: Preemergent control of plant species; type: in vivo, Abutilon theophrasti; details: Abutilon theophrasti, pre-emergence, 336 h; 0.25 lb/acre; read-out: percent preemergent control
Method in brief: as §2

yellow foxtail [11] = assay: Postemergent control of plant species; type: in vivo, Setaria lutescens; details: Setaria, post-emergence, 336 h, read-out: percent postemergent control
Method in brief: as §1

crabgrass [12] = assay: Preemergent control of plant species; type: in vivo, Digitaria spp.; details: Digitaria sanguinalis, pre-emergence, 336 h; 0.25 lb/acre; read-out: percent preemergent control
Method in brief: as §2

wheat = assay: Postemergent control of plant species; type: in vivo, Triticum aestivum; details: Triticum aestivum, post-emergence, 336 h, read-out: percent postemergent control
Method in brief: as §1

pigweed = assay: Preemergent control of plant species; type: in vivo, Amaranthus spp.; details: Amaranthus retroflexus, pre-emergence, 336 h; 0.25 lb/acre; read-out: percent preemergent control
Method in brief: as §2

jimsonweed = assay: Preemergent control of plant species; type: in vivo, Datura stramonium; details: Datura stramonium, pre-emergence, 336 h; 0.25 lb/acre; read-out: percent preemergent control
Method in brief: as §2

rape [13] = assay: Preemergent control of plant species; type: in vivo, Brassica napus; details: Brassica napus, pre-emergence, 336 h; 0.25 lb/acre; read-out: percent preemergent control
Method in brief: as §2

yellow foxtail [14] = assay: Preemergent control of plant species; type: in vivo, Setaria lutescens; details: Setaria, pre-emergence, 336 h; 0.25 lb/acre; read-out: percent preemergent control
Method in brief: as §2

wild oats [15] = assay: Preemergent control of plant species; type: in vivo; details: Avena fatua, pre-emergence, 336 h; 0.25 lb/acre; read-out: percent preemergent control
Method in brief: as §2

| SMILES | plant injury at 500 ppm (soybean) [%] | % NH4-N Remaining After 2 Weeks Incubation ([1]; 1 ppm) [%] | pest or weed control at 500 ppm (annual morning glory) [%] | pest or weed control at 500 ppm (cocklebur) [%] | pest or weed control at 500 ppm (wild oats [2]) [%] | plant injury at 500 ppm (corn [3]) [%] | plant injury at 500 ppm (rape [4]) [%] | plant injury at 280.212 g/ha (rice) [%] | pest or weed control at 500 ppm (johnson grass [5]) [%] | plant injury at 500 ppm (sorghum) [%] | pest or weed control at 280.212 g/ha (johnson grass [6]) [%] | pest or weed control at 500 ppm (crabgrass [7]) [%] | plant injury at 280.212 g/ha (corn [8]) [%] | pest or weed control at 500 ppm (velvetleaf [9]) [%] | pest or weed control at 280.212 g/ha (yellow nutsedge) [%] | pest or weed control at 280.212 g/ha (velvetleaf [10]) [%] | pest or weed control at 500 ppm (yellow foxtail [11]) [%] | plant injury at 500 ppm (wheat) [%] | pest or weed control at 280.212 g/ha (jimsonweed) [%] | plant injury at 280.212 g/ha (rape [13]) [%] | other results |
| --- | --- | --- | --- | --- | --- | --- | --- | --- | --- | --- | --- | --- | --- | --- | --- | --- | --- | --- | --- | --- | --- |
| Cc1cc(C)n2nc(S(=O)(=O)Nc3ccccc3I)nc2n1 [Compound 6] | 70 | 78 | 80 | 90 | 0 | 0 | 80 | 80 | 80 | 80 | 0 | 20 | 0 | 90 | 50 | 60 | 0 | 0 | 0 | 100 | % NH4-N Remaining After 2 Weeks Incubation ([1]; 0.01 ppm): 15%; % NH4-N Remaining After 2 Weeks Incubation ([1]; 0.1 ppm): 55%; % NH4-N Remaining After 2 Weeks Incubation ([1]; 10 ppm): 87%; pest or weed control at 280.212 g/ha (crabgrass [12]): 0%; pest or weed control at 280.212 g/ha (pigweed): 100% |
| Cc1cc(C)n2nc(S(=O)(=O)Nc3ccccc3F)nc2n1 [Compound 8] | 75 | 67 | 70 | 90 | 0 | 20 | 90 | 90 | 90 | 70 | 80 | 10 | 80 | 75 | 75 | 60 | 25 | 10 | 100 | 100 | % NH4-N Remaining After 2 Weeks Incubation ([1]; 0.06 ppm): 4%; % NH4-N Remaining After 2 Weeks Incubation ([1]; 0.125 ppm): 23%; % NH4-N Remaining After 2 Weeks Incubation ([1]; 0.25 ppm): 44%; % NH4-N Remaining After 2 Weeks Incubation ([1]; 0.5 ppm): 59%; pest or weed control at 280.212 g/ha (yellow foxtail [14]): 60%; pest or weed control at 280.212 g/ha (wild oats [15]): 15%; pest or weed control at 280.212 g/ha (crabgrass [12]): 70%; pest or weed control at 280.212 g/ha (pigweed): 95% |
| Cc1cc(C)n2nc(S(=O)(=O)Nc3ccccc3[N+](=O)[O-])nc2n1 [Compound 12] | 80 | 87 | 100 | 100 | 0 | 10 | 100 | 10 | 55 | 75 | 80 | 25 | 50 | 95 | 50 | 30 | 20 | 0 | 0 | 95 | % NH4-N Remaining After 2 Weeks Incubation ([1]; 0.06 ppm): 40%; % NH4-N Remaining After 2 Weeks Incubation ([1]; 0.125 ppm): 70%; % NH4-N Remaining After 2 Weeks Incubation ([1]; 0.25 ppm): 74%; % NH4-N Remaining After 2 Weeks Incubation ([1]; 0.5 ppm): 83%; pest or weed control at 280.212 g/ha (yellow foxtail [14]): 0%; pest or weed control at 280.212 g/ha (wild oats [15]): 0%; pest or weed control at 280.212 g/ha (crabgrass [12]): 10%; pest or weed control at 280.212 g/ha (pigweed): 60% |
| CCc1cccc(CC)c1NS(=O)(=O)c1nc2nc(C)cc(C)n2n1 [Compound 33] | 40 | 77 | 60 | 60 | 0 | 25 | 60 | 0 | 60 | 80 | 0 | 0 | 0 | 80 |  | 0 | 0 | 0 | 40 | 80 | % NH4-N Remaining After 2 Weeks Incubation ([1]; 0.01 ppm): 8%; % NH4-N Remaining After 2 Weeks Incubation ([1]; 0.1 ppm): 42%; % NH4-N Remaining After 2 Weeks Incubation ([1]; 10 ppm): 88%; pest or weed control at 280.212 g/ha (yellow foxtail [14]): 0%; pest or weed control at 280.212 g/ha (wild oats [15]): 40%; pest or weed control at 280.212 g/ha (crabgrass [12]): 10%; pest or weed control at 280.212 g/ha (pigweed): 10% |
| CC(=O)N(c1c(Cl)cccc1Cl)S(=O)(=O)c1nc2nc(C)cc(C)n2n1 [Compound 262] | 95 | 75 | 100 |  | 0 | 50 | 100 | 95 | 100 | 90 | 60 | 95 | 80 | 100 | 100 | 100 | 100 | 10 | 100 | 100 | % NH4-N Remaining After 2 Weeks Incubation ([1]; 0.06 ppm): 28%; % NH4-N Remaining After 2 Weeks Incubation ([1]; 0.25 ppm): 49%; % NH4-N Remaining After 2 Weeks Incubation ([1]; 4 ppm): 89%; pest or weed control at 280.212 g/ha (yellow foxtail [14]): 95%; pest or weed control at 280.212 g/ha (wild oats [15]): 50% |
